Test results: publication PMC9308932, “Human liver microsomes study on the inhibitory effect of plantainoside D on the activity of cytochrome P450 activity” (BMC Complementary Medicine and Therapies, 2022)

Key:
Format in all cases: in vitro ADME
CYP2A6 = molecular target: T1, CYP2A6 (Homo sapiens, UniProt P11509); experiment: CYP2A6 activity (coumarin 7-hydroxylation) in human liver microsomes; details: 0-100 μM plantainoside D
T1 construct: Pooled human liver microsomes were obtained from BD Biosciences Discovery Labware; tissue BD Biosciences Discovery Labware; host or cells: pooled human liver microsomes
T1 sequence (P11509 1-494): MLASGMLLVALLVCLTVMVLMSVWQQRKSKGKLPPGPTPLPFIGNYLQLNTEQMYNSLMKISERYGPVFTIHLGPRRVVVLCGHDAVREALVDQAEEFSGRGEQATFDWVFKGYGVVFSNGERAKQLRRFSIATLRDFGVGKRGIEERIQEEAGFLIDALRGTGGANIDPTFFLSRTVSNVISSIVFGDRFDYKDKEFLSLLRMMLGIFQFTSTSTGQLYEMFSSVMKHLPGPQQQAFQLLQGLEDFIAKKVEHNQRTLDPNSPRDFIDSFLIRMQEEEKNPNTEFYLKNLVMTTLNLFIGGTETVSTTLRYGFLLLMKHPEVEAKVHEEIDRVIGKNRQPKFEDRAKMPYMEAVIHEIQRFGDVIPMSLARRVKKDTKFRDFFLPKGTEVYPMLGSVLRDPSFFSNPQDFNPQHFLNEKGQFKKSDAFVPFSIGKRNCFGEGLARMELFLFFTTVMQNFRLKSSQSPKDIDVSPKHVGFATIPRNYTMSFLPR
Description: (§1) The activity of P450s was evaluated by corresponding metabolites using HPLC with Agilent 1260 Series Rapid Resolution HPLC. The reaction system was prepared with the following compositions: HLMs with certain protein concentrations, specific substrates of different isoenzymes, PBS buffer solution, plantainoside D or specific inhibitors, and an NADPH generating system as previously reported. Besides dextromethorphan and quinidine were dissolved in water, other substrated, inhibitors, and plantainoside D were dissolved in methanol with a final concentration of 1% (v/v). Before initiating the reaction, there was a preincubation of 3 min followed by the addition of the NADPH-generating system. [table] [table] […] Furthermore, the inhibition model of P450 isoenzymes was estimated in the presence of various concentrations of corresponding substrates and fitting with Lineweaver–Burk and Dixon plots, and the inhibition constant was calculated by the following equations: […]

CYP1A2 [1] = molecular target: T2, CYP1A2 (Homo sapiens, UniProt P05177); experiment: Concentration-dependent inhibition of CYP1A2 (phenacetin O-deethylation) in human liver microsomes
T2 construct: Pooled human liver microsomes were obtained from BD Biosciences Discovery Labware; tissue BD Biosciences Discovery Labware; host or cells: pooled human liver microsomes
T2 sequence (P05177 1-516): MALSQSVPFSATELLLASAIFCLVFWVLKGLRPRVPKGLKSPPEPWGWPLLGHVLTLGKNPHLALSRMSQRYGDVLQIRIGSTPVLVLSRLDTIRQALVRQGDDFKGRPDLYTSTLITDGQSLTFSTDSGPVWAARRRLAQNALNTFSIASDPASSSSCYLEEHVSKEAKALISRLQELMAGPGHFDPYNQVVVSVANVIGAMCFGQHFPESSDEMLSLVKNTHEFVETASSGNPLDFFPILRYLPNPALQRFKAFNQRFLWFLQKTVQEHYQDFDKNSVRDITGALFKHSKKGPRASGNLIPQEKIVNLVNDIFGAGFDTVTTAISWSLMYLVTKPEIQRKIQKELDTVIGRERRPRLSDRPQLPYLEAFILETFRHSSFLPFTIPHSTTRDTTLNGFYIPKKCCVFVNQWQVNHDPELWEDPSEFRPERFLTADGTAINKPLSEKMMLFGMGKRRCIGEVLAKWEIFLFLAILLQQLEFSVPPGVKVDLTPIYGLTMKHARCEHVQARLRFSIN
Description: (§2) The activity of P450s was evaluated by corresponding metabolites using HPLC with Agilent 1260 Series Rapid Resolution HPLC. The reaction system was prepared with the following compositions: HLMs with certain protein concentrations, specific substrates of different isoenzymes, PBS buffer solution, plantainoside D or specific inhibitors, and an NADPH generating system as previously reported. Besides dextromethorphan and quinidine were dissolved in water, other substrated, inhibitors, and plantainoside D were dissolved in methanol with a final concentration of 1% (v/v). Before initiating the reaction, there was a preincubation of 3 min followed by the addition of the NADPH-generating system.
(§3) The effect of plantainoside D was primarily evaluated with the concentration of 0, 2.5, 5, 10, 25, 50, and 100 μM and the values of IC50 was evaluated. Furthermore, the inhibition model of P450 isoenzymes was estimated in the presence of various concentrations of corresponding substrates and fitting with Lineweaver–Burk and Dixon plots, and the inhibition constant was calculated by the following equations:
(§4) v=VmaxS/Km1+I/Ki+S for competitive inhibition;
(§5) v=(VmaxS)/[Km+S(1+I/KiKI)] for non-competitive inhibition.
(§6) where I is the concentration of plantainoside D, Ki is the inhibition constant, S is the concentration of the substrate, and Km is the substrate concentration at half the maximum velocity (Vmax) of the reaction.

CYP2C9 = molecular target: T3, CYP2C9 (Homo sapiens, UniProt P11712); experiment: CYP2C9 activity (diclofenac 4'-hydroxylation) in human liver microsomes; details: 0-100 μM plantainoside D
T3 construct: Pooled human liver microsomes were obtained from BD Biosciences Discovery Labware; tissue BD Biosciences Discovery Labware; host or cells: pooled human liver microsomes
Description: as §1

CYP2E1 = molecular target: T4, CYP2E1 (Homo sapiens, UniProt P05181); experiment: CYP2E1 activity (chlorzoxazone 6-hydroxylation) in human liver microsomes; details: 0-100 μM plantainoside D
T4 construct: Pooled human liver microsomes were obtained from BD Biosciences Discovery Labware; tissue BD Biosciences Discovery Labware; host or cells: pooled human liver microsomes
Description: as §1

CYP2B6 = molecular target: T5, CYP2B6 (Homo sapiens, UniProt P20813); experiment: CYP2B6 activity (bupropion hydroxylation) in human liver microsomes; details: 0-100 μM plantainoside D
T5 construct: Pooled human liver microsomes were obtained from BD Biosciences Discovery Labware; tissue BD Biosciences Discovery Labware; host or cells: pooled human liver microsomes
T5 sequence (P20813 1-491): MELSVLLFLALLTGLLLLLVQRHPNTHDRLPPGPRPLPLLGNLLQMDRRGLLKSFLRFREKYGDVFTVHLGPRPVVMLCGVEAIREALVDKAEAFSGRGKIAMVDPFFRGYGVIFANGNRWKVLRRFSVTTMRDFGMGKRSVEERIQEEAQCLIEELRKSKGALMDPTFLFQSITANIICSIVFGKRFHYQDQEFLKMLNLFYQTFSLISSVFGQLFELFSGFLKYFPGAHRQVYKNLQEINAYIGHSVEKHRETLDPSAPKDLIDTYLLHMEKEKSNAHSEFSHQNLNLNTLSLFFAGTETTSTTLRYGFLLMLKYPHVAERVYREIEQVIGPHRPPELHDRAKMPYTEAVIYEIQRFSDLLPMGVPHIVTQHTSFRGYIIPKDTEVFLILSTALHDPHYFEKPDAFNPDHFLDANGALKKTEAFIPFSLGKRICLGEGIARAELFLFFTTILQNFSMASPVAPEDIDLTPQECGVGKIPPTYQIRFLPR
Description: as §1

CYP1A2 [2] = molecular target: T2, CYP1A2; experiment: Time-dependent inhibition of CYP1A2 in human liver microsomes; details: 20 μM plantainoside D; incubation 0-30 min; 1 mg/mL HLMs
Description: (§7) A total of 1 mg/mL HLMs were firstly incubated with 20 μM plantainoside D and the NADPH-generating system for 30 min. Then, incubation with 20 μL aliquot was carried out for 0, 5, 10, 15, and 30 min in the presence of substrates concentration close to Km.

CYP2D6 [3] = molecular target: T6, CYP2D6 (Homo sapiens, UniProt P10635); experiment: Concentration-dependent inhibition of CYP2D6 (dextromethorphan O-demethylation) in human liver microsomes
T6 construct: Pooled human liver microsomes were obtained from BD Biosciences Discovery Labware; tissue BD Biosciences Discovery Labware; host or cells: pooled human liver microsomes
Description: as §2, §3, §4, §5, §6

CYP3A [4] = molecular target: T7, CYP3A (Homo sapiens, UniProt P08684); experiment: Concentration-dependent inhibition of CYP3A (testosterone 6β-hydroxylation) in human liver microsomes
Description: as §2, §3, §4, §5, §6

CYP2C8 = molecular target: T8, CYP2C8 (Homo sapiens, UniProt P10632); experiment: CYP2C8 activity (paclitaxel 6α-hydroxylation) in human liver microsomes; details: 0-100 μM plantainoside D
T8 construct: Pooled human liver microsomes were obtained from BD Biosciences Discovery Labware; tissue BD Biosciences Discovery Labware; host or cells: pooled human liver microsomes
T8 sequence (P10632 1-490): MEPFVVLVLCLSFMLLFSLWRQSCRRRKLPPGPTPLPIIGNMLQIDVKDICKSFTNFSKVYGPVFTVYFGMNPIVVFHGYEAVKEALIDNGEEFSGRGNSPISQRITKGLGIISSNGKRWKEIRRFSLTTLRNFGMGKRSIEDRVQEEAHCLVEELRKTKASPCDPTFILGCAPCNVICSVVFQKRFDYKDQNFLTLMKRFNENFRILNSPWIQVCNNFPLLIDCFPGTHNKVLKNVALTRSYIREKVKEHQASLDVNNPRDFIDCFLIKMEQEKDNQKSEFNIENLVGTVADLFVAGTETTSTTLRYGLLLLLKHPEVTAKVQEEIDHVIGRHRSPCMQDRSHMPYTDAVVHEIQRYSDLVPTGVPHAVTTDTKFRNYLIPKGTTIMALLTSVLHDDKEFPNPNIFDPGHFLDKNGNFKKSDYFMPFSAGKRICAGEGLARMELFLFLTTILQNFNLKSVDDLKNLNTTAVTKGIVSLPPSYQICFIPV
Description: as §1

CYP2D6 [5] = molecular target: T6, CYP2D6; experiment: Time-dependent inhibition of CYP2D6 in human liver microsomes; details: 20 μM plantainoside D; incubation 0-30 min; 1 mg/mL HLMs
Description: as §7

CYP2C19 = molecular target: T9, CYP2C19 (Homo sapiens, UniProt P33261); experiment: CYP2C19 activity (S-mephenytoin 4-hydroxylation) in human liver microsomes; details: 0-100 μM plantainoside D
T9 construct: Pooled human liver microsomes were obtained from BD Biosciences Discovery Labware; tissue BD Biosciences Discovery Labware; host or cells: pooled human liver microsomes
Description: as §1

CYP3A [6] = molecular target: T7, CYP3A; experiment: Time-dependent inhibition of CYP3A in human liver microsomes
Description: as §7, with “Km. Additionally, the values of KI and Kinact were evaluated in the presence of substrates approximate to fourfold Km according to the equation: 1/Kobs=KI/Kinact×1/[I]+1/Kinact .” for “Km.”

[7] = Lineweaver-Burk plot, constant Vmax
[8] = competitive model, Dixon plot, human liver microsomes
[9] = human, human liver microsomes, probe testosterone (6β-hydroxylation)

T6 sequence (P10635 whole entry): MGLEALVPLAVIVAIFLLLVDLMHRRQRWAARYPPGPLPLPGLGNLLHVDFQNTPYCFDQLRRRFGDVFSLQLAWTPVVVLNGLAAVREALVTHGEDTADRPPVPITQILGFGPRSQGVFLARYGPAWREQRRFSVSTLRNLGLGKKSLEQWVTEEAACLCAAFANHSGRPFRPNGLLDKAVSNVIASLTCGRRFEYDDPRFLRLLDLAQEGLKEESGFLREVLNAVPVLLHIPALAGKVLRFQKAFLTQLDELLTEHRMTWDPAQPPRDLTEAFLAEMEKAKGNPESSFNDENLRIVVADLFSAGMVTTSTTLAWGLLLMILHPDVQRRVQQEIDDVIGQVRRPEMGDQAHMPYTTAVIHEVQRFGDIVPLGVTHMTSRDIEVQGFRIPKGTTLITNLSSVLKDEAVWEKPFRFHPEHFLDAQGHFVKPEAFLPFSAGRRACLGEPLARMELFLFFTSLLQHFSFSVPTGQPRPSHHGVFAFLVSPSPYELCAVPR
T7 sequence (P08684 2-503): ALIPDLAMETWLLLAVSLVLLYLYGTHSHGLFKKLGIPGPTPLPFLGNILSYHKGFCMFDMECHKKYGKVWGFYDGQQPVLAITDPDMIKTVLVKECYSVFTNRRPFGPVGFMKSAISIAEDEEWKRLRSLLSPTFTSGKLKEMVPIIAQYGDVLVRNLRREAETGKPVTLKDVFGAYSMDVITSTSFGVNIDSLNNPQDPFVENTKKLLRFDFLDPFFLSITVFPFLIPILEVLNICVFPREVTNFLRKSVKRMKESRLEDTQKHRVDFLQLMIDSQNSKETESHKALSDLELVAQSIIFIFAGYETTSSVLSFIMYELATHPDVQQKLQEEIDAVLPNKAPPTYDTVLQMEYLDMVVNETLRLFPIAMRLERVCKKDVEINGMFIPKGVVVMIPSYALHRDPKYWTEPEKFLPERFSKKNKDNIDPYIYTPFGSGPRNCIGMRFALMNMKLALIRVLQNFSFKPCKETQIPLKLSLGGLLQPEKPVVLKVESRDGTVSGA
T4 sequence (P05181 whole entry): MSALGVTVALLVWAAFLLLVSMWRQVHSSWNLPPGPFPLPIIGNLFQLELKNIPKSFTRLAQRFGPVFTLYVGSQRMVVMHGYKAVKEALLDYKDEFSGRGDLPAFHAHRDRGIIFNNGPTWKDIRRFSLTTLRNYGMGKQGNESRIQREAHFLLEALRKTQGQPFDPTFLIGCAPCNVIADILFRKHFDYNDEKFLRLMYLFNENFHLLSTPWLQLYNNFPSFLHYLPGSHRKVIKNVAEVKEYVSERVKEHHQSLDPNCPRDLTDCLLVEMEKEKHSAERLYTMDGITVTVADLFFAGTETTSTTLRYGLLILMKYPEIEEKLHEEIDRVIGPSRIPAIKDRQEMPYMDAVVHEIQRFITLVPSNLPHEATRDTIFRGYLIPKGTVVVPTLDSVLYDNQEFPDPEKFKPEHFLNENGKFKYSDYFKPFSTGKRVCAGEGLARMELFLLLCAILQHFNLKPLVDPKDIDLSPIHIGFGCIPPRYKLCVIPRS
T9 sequence (P33261 whole entry): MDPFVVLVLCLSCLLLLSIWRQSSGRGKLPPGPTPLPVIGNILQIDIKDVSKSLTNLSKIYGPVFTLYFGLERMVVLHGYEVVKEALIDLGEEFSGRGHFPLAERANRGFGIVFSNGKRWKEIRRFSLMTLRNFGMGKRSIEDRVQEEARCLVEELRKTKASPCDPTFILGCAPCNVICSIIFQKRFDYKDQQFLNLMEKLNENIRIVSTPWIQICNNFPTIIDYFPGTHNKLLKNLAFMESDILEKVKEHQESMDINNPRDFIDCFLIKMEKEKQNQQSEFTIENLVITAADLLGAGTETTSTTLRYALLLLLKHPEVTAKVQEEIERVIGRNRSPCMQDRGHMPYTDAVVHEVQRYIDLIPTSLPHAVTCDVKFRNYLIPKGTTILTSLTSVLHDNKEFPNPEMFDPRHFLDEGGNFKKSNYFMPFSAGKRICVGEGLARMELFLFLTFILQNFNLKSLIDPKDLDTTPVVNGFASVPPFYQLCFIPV
T3 sequence (P11712 whole entry): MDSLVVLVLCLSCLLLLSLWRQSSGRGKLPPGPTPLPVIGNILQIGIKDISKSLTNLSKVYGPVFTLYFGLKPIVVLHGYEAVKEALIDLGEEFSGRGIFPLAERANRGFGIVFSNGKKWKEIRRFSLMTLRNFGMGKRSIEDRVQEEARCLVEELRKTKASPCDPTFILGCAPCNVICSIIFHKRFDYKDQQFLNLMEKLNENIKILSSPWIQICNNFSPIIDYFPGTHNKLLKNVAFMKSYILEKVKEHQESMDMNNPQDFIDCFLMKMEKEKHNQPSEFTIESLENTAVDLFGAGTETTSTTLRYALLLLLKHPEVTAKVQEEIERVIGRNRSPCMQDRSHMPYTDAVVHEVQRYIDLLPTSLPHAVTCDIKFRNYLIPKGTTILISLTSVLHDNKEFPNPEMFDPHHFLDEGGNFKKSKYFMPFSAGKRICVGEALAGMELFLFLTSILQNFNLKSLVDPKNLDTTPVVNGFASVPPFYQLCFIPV

O=C(/C=C/c1ccc(O)c(O)c1)OC[C@H]1O[C@@H](OCCc2ccc(O)c(O)c2)[C@H](O)[C@@H](O[C@@H]2O[C@H](CO)[C@@H](O)[C@H](O)[C@H]2O)[C@@H]1O [plantainoside D, Plantainoside D]
Effect on CYP2A6 activity (CYP2A6): no changes | Inhibition model of CYP1A2 (CYP1A2 [1]; [7]): competitive | Ki (CYP1A2 [1]; [8]): 6.26 µM | IC50 (CYP1A2 [1]; human liver microsomes, 0-100 μM plantainoside D, phenacetin substrate): 12.8 µM | Effect on CYP2C9 activity (CYP2C9): no changes | Effect on CYP2E1 activity (CYP2E1): no changes | Effect on CYP2B6 activity (CYP2B6): no changes | Time dependence of CYP1A2 inhibition (CYP1A2 [2]): no significant changes with time | Inhibition model of CYP2D6 (CYP2D6 [3]; [7]): competitive | Ki (CYP2D6 [3]; [8]): 4.54 µM | IC50 (CYP2D6 [3]; human liver microsomes, 0-100 μM plantainoside D, dextromethorphan substrate): 8.39 µM | Inhibition model of CYP3A (CYP3A [4]; Lineweaver-Burk plot, constant Km): non-competitive | IC50 (CYP3A [4]; [9]): 14.7 µM | Ki (CYP3A [4]; [9]): 7.16 µM | Effect on CYP2C8 activity (CYP2C8): no changes | Time dependence of CYP2D6 inhibition (CYP2D6 [5]): no significant changes with time | Effect on CYP2C19 activity (CYP2C19): no changes | Time dependence of CYP3A inhibition (CYP3A [6]; 20 μM plantainoside D, incubation 0-30 min, 1 mg/mL HLMs): enhanced with the increasing incubation time | kinact (CYP3A [6]; human liver microsomes, 0, 2, 5, 10, 20, 50 μM plantainoside D, substrate about fourfold Km): 0.00065 s⁻¹
